Assay [1] deals with PC3 (prostate) cancer cells. The assay is described as follows: In vitro cytotoxic activity MTT assay, PC3. The format is cell-based. The settings on record: Homo sapiens, PC-3, 96 hours exposure, 50% inhibition of cell proliferation, read-out: Cytotoxicity activity IC50, PC3 (prostate). The method, then: (§1) Compounds 1-16 were screened for their in vitro cytotoxic activity utilizing a 3-(4,5-dimethyl-thiazol-2-yl)-2,5-diphenyltetrazolium bromide (MTT) assay against selected cancer human cell lines consisting of PC3 (prostate), HCT116 (colon), A375 (melanoma), H1299 (lung), MIAPaCa-2 (pancreas), HL60 (leukemia), MCF7 (breast), MDA-MB-231 (breast) (T. Mosmann, J. Immunol. Meth., 1983, 65, 55-63). The cells were cultured at 37° C. in RMPI1640 medium supplemented with 10% fetal bovine serum, 50 IU/mL penicillin, and 50 μg/mL streptomycin in a 5% CO2 incubator. All cells were sub-cultured 3 times/week by trypsinisation. Viable cells were seeded and allowed to adhere for 12 hours before a test drug was added in 96-well plates at an initial density of 1.0×10^5 cells/mL. Tumor cell lines were separately exposed to various concentrations of the tested compounds followed by incubation at a temperature of 37° C. during 96 hours inside a medium of fresh RMPI1640. Cells were subsequently incubated at 37° ° C. using MTT at 0.5 mg/mL during 4 hours. After removal of supernatant, formazan crystals were dissolved in isopropanol and the optical density was measured at 570 nm. CX-4945 was used as a positive control.
Background: Formazan colour is commonly taken as a measure of viable cells.

Assay [2] concerns HCT116 (colon) cancer cells. The assay is described as follows: In vitro cytotoxic activity MTT assay, HCT116. Particulars: Homo sapiens, HCT-116, 96 hours exposure, 50% inhibition of cell proliferation, read-out: Cytotoxicity activity IC50, HCT116 (colon). It is filed as cell-based. Here is the method: as §1
For assay [3], the system named is A375 (melanoma) cancer cells. Put plainly: In vitro cytotoxic activity MTT assay, A375. It is filed as cell-based. Particulars: Homo sapiens, A-375, 96 hours exposure, 50% inhibition of cell proliferation, read-out: Cytotoxicity activity IC50, A375 (melanoma). The method, then: as §1
Assay [4] deals with H1299 (lung) cancer cells. The assay is described as follows: In vitro cytotoxic activity MTT assay, H1299. The format is cell-based. The settings on record: Homo sapiens, NCI-H1299, 96 hours exposure, 50% inhibition of cell proliferation, read-out: Cytotoxicity activity IC50, H1299 (lung). Here is the method: as §1
The test system of assay [5] is MIAPaCa-2 (pancreas) cancer cells. Put plainly: In vitro cytotoxic activity MTT assay, MIAPaCa-2. Particulars: Homo sapiens, MIA PaCa-2; MIAPaCa-2 cells, 96 hours exposure, 50% inhibition of cell proliferation; read-out: Cytotoxicity activity IC50, MIAPaCa-2 (pancreas). The format is cell-based. Here is the method: as §1
Assay [6] relates to HL60 (leukemia) cancer cells. The assay is described as follows: In vitro cytotoxic activity MTT assay, HL60. The format is cell-based. The settings on record: Homo sapiens, HL-60, 96 hours exposure, 50% inhibition of cell proliferation, read-out: Cytotoxicity activity IC50, HL60 (leukemia). Here is the method: as §1
Assay [7] has as its system MCF7 (breast) cancer cells. The assay is described as follows: In vitro cytotoxic activity MTT assay, MCF7. The format is cell-based. Particulars: Homo sapiens, 96 hours exposure, 50% inhibition of cell proliferation, read-out: Cytotoxicity activity IC50, MCF7 (breast). The method, then:
as §1

For assay [8], the system named is MDA-MB-231 (breast) cancer cells. Put plainly: In vitro cytotoxic activity MTT assay, MDA-MB-231. It is filed as cell-based. Particulars: Homo sapiens; MDA-MB-231 cells, 96 hours exposure, 50% inhibition of cell proliferation; read-out: Cytotoxicity activity IC50, MDA-MB-231 (breast). The method, then: as §1
Assay [9] addresses T1, recombinant human CK2 (RRββ-holoenzyme) (Homo sapiens, UniProt P68400).
T1 construct: purchased Millipore
Put plainly: CK2 Kinase Assay (33P-ATP, substrate peptide RRRDDDSDDD). The format is biochemical. The settings on record: final ATP 15 μM, 10 min at 30° C., read-out: protein kinase CK2 inhibition IC50. The method, then: CK2 Kinase Assay was conducted using the protocol as described in Pierre F. et al; J. Med. Chem. 2011, 54, 635-654. The tested compounds in aqueous solution were added at a volume of 10 μL to a reaction mixture comprising 10 μL of assay dilution buffer (ADB; 20 mM MOPS, pH 7.2, 25 mM β-glycerol phosphate, 5 mM EGTA, 1 mM sodium orthovanadate, and 1 mM dithiothreitol), 10 μL of substrate peptide (RRRDDDSDDD, dissolved in ADB at a concentration of 1 mM), 10 μL of recombinant human CK2 (RRββ-holoenzyme, 25 ng dissolved in ADB; Millipore). Reactions were initiated by the addition of 10 μL of ATP solution (90% 75 mMMgCl2, 75 μM ATP (final ATP concentration: 15 μM) dissolved in ADB; 10% [γ-33P] ATP (stock 1 mCi/100 μL; 3000 Ci/mmol (Perkin-Elmer) and maintained for 10 min at 30° C. The reactions were quenched with 100 μL of 0.75% phosphoric acid and then transferred to and filtered through a phosphor cellulose filter plate (Millipore). After washing each well five times with 0.75% phosphoric acid, the plate was dried under vacuum for 5 min and, following the addition of 15 μL of scintillation fluid to each well, the residual radioactivity was measured using a Wallac […]. The IC50 values were derived from eight concentrations of test inhibitors.

T1 sequence (P68400 whole entry): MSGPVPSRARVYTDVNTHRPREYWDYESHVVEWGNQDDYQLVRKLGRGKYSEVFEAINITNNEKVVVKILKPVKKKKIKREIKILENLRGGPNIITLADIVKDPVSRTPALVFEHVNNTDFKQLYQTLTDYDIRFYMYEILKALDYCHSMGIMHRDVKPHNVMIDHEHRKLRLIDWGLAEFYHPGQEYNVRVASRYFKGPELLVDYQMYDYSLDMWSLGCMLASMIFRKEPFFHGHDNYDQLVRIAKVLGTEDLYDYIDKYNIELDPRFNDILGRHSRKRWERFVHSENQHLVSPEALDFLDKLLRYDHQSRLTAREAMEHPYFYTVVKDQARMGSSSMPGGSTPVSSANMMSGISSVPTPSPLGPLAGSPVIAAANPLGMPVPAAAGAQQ
T1 sequence (P67870 whole entry partner): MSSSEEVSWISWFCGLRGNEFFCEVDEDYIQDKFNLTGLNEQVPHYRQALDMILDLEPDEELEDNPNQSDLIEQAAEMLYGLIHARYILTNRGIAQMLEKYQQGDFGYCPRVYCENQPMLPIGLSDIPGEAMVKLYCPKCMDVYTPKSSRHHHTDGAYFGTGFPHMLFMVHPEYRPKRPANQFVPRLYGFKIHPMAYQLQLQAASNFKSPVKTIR

Take `O=C(O)c1cc2nc(Nc3cccc(Cl)c3)c3ccncc3n2n1` [Compound 1, 5-((3-Chlorophenyl)Amino)Pyrazolo[1,5-a]Pyrido[4,3-e]Pyrimidine-2-Carboxylic Acid]: the concentration for half-maximal inhibition (IC50) (in general, the point on the concentration scale where inhibition reaches its midpoint) is 1700 nM in assay [1]; 1600 nM in [2]; 4500 nM in assay [3]; 1900 nM in assay [4]; 1300 nM in assay [5]; 3200 nM in assay [6]. Moreover, the IC50 was determined as 5400 nM in [7], 4800 nM in [8] and 72 nM in assay [9].

The values are drawn from US12071437B1, “Pyrazolo[1,5-a]pyrido[4,3-e]pyrimidine-2-carboxylic acids as CK2 inhibitors” (KING FAISAL UNIVERSITY, priority 2024, dated 2024).
